The text below walks through data of PMC9740939, “A Network-Pharmacology-Combined Integrated Pharmacokinetic Strategy to Investigate the Mechanism of Potential Liver Injury due to Polygonum multiflorum” (Molecules, 2022).

A short description of data set [1]: Stability of analytes in rat plasma (QC samples, storage and freeze–thaw). The data set is classed as in vitro ADME. Conditions: for Stability in rat plasma (in words): 4 °C for 48 h, −80 °C for 10 days, three freeze–thaw cycles; for Stability Re (%), 4 °C, 48 h / Stability Re (%), −80 °C, 10 Days / Stability Re (%), Three Freeze–Thaw Cycles: rat plasma, n = 6; for Stability Re (%), Three Freeze–Thaw Cycles: −80 °C to 25 °C. As for the experimental part:
Samples for bioanalytical method validation were prepared by spiking 100 μL of blank rat plasma and 100 μL of IS solution in bulk with different standard solutions to obtain appropriate concentrations for serial standard working solutions with the matrix and QC samples (TSG, PG, AE, and EM: 0.50 ng/mL (lower limit of quantitation, LLOQ), 10.0 ng/mL (low quality control, LQC), 200 ng/mL (medium quality control, MQC), and 640 ng/mL (high quality control, HQC); EG: 0.125 ng/mL (LLOQ), 2.50 ng/mL (LQC), 50.0 ng/mL (MQC), and 160 ng/mL (HQC)). All the stock solutions, working solutions, and samples were stored at −80 °C pending use.
Stability experiments were performed to evaluate the stability of the analytes in rat plasma at the LQC, MQC, and HQC under different time and temperature conditions. These included short-term stability (4 °C for 48 h), long-term stability (−80 °C for 10 days), and stability over three freeze–thaw cycles (−80 °C to 25 °C) by analyzing QC samples.

A short description of data set [2]: Pharmacokinetic study in rats after oral administration of PM extract (HPLC-QQQ-MS of plasma). The conditions noted are these: oral PM 18 g/kg; for half-life: n = 6, read-out: T1/2z (converted); for MRT last: read-out: MRT0–t; for MRT inf: read-out: MRT0–∞; for Vd/F: read-out: Vz/F. The class given is in vivo, Sprague–Dawley (SD) rats. As for the experimental part: Adult male Sprague–Dawley (SD) rats weighing between 180 g and 220 g were purchased from Beijing Vital River Laboratory Animal Technology Co., Ltd. (Beijing, China). The rats were kept in an animal center with air-conditioning and with a natural light–dark cycle (22 ± 1 °C and 40–50% humidity) with ad libitum access to standard food and water for a week before the experiment. All the animal procedures were in accordance with the Regulations of Experimental Animal Administration issued by the State Committee of Science and Technology of the People’s Republic of China. All the SD rats were fasted for 12 h prior to the experiment but with free access to water.
The assay was performed with an Agilent 1260 high-performance liquid chromatography system combined with Agilent 6470 QQQ MS (Agilent Technologies, CA, USA). Applied Masshunter Qualitative Analysis software (version B.07.00) and Quantitative Analysis software (version 07.00) were used for data acquisition and quantification. Analytes separation was achieved on a reversed-phase C18 column (Agilent Poroshell 120 EC-C18, 3.0 × 50 mm, 2.7 μm), which was protected by a guard column (Agilent EC-C18 3.0 × 5.0 mm, 2.7 μm). A gradient elution program composed of water (A) and acetonitrile (B) with gradient elution was used as follows: 0–1 min, 5% B; 1–3 min, 5–45% B; 3–7 min, 45–60% B; and 7–9 min, 60–95% B. The oven temperature was maintained at 40 °C. The flow rate was set at 0.6 mL/min (with a split ratio of 1:1.8), and the injection volume was 4 μL.
Agilent QQQ MS equipped with an electrospray ionization (ESI) source was used for mass spectrometric detection. MRM mode (negative) was used for performing the quantification of TSG, EG, PG, AE, and EM. The other MS conditions were set as follows: gas temperature, 300 °C, gas flow, 8 L/min; nebulizer, 55 psi; and sheath gas flow, 11 L/min.
A simple pretreatment method for protein precipitation was carried out to clean up the plasma samples prior to LC-MS/MS analysis. The plasma sample was thawed to room temperature. An aliquot of pre-cooled 800 μL of acetonitrile and 100 μL of IS solution (100 ng/mL) was added to a 300 μL plasma sample in a centrifuge tube. The tubes were vortexed for 10 min and spun in a centrifuge at 12,000 rpm for 15 min at 4 °C. The supernatant was transferred into a separate tube and dried using a vacuum concentrator, and the samples were re-dissolved with 100 μL of pure methanol. Next, the tube was vortexed for 10 min and spun in a centrifuge at 12,000 rpm for 15 min at 4 °C again. The supernatant was then injected into the HPLC-QQQ-MS instrument for analysis.
(§1) Blood samples were collected from the fundus into heparinized 1.5 mL polythene tubes at 5, 15, and 30 min and 1, 2, 4, 8, 12, and 24 h after oral administration of PM (18 g/kg). The blood samples were immediately centrifuged at 3500 rpm for 10 min to obtain plasma. Next, the plasma obtained was prepared for HPLC-QQQ-MS analysis, as described before. The TSG, EG, PG, AE, and EM concentrations in plasma versus time data for each rat were analyzed using Drug and Statistics Software (DAS version 3.2.8, Beijing University of Traditional Chinese Medicine, Beijing, China).

A short description of data set [3]: Integrated pharmacokinetics by AUC-based weighting approach. The class given is in vivo, Sprague–Dawley (SD) rats. The conditions noted are these: Wj = AUCj0–∞ / sum of AUC0–∞; rats, oral PM 18 g/kg. As for the experimental part: as §1
As mentioned before, the concentration–time curve (AUC0–∞) of each constituent was obtained using DAS, and then the integrated concentration was obtain using the following equations [46]: The weighting coefficient for each component was calculated using Equations (1) and (2). The integrated concentrations were then calculated by Equation (3). (1) Wj=AUCj0−∞/∑13AUC0−∞ (2) ∑13AUC0−∞=AUC0−∞1+AUC0−∞2+AUC0−∞3 (3) cT=W1×c1+W2×c2+W3×c3 where ω represents the weighting coefficient, “j” represents the three constituents studied, C1–C3 represent the plasma concentration of the three index components studied, and CT represents the integrated plasma concentration.

The mark [4] stands for this setting: HQC: spiked 640 ng/mL (EG 160 ng/mL).
Where [5] appears, read: LQC: spiked 10.0 ng/mL (EG 2.50 ng/mL).
Where [6] appears, read: MQC: spiked 200 ng/mL (EG 50.0 ng/mL).
[7] abbreviates: male, Sprague-Dawley, rat, plasma, po, 18 g/kg, n = 6.
Setting [8] is: male, Sprague-Dawley, rat, plasma, po, 18 g/kg.
Where [9] appears, read: male, Sprague-Dawley, rat plasma, n = 6.
The mark [10] stands for this setting: male, Sprague-Dawley, rat plasma, n = 6, read-out: Tmax.

Molecules are shown by their SMILES. Where two headings read alike, the source gives them in different places.

On to `O=C1c2cccc(O)c2C(=O)c2c(O)cc(CO)cc21` [AE, aloe-emodin], for which, in data set [1], the “Stability in rat plasma (in words)” value is reported as “stable”. In data set [1] (setting [4]), the “Stability Re (%), 4 °C, 48 h” value was found to be 90.21%; the “Stability Re (%), −80 °C, 10 Days” value was 100.1%; the “Stability Re (%), Three Freeze–Thaw Cycles” value was 96.94%. In data set [1] (setting [5]), the “Stability Re (%), 4 °C, 48 h” value was 94.77%; the “Stability Re (%), −80 °C, 10 Days” value worked out at 90.27%; the “Stability Re (%), Three Freeze–Thaw Cycles” value is 90.50%. In data set [1] (setting [6]), the “Stability Re (%), 4 °C, 48 h” value was determined as 97.05%; the “Stability Re (%), −80 °C, 10 Days” value came to 89.62%; the “Stability Re (%), Three Freeze–Thaw Cycles” value amounted to 91.44%. Besides, in data set [2] (setting [7]), the AUC(0-inf) (in general, the area under the concentration-time curve extrapolated to infinity) was determined as 70.3 ± 13.8 ng·h/mL. Moreover, the half-life in data set [2] (setting [8]) was 6.42 ± 2.17 h. Besides, in data set [2] (setting [9]), the AUC(0-t) (in general, the area under the concentration-time curve up to a stated or last time point) turned out to be 64.5 ± 9.4 ng·h/mL; the highest level (Cmax) was 17.9 ± 2.94 ng/mL; the MRT last turned out to be 6.5 ± 1.42 h; the MRT inf is 8.57 ± 3.02 h. In data set [2] (setting [9]), the Vd/F is 407 ± 113 L/kg. In addition, in data set [2] (rat plasma, n = 6), the CLz/F was 756 ± 131 mL/min/kg and the Tmax (usually the time at which the peak concentration occurs) is 0.25 ± 0.00 h. The “Weighting coefficient (AUC0–∞ share)” value in data set [3] stood at 2.799%.
For `Cc1cc(O)c2c(c1)C(=O)c1cc(O)cc(O)c1C2=O` [EM, emodin], the “Stability in rat plasma (in words)” value in data set [1] is “stable”. In data set [1] (setting [4]), the “Stability Re (%), 4 °C, 48 h” value came out at 85.19%; the “Stability Re (%), −80 °C, 10 Days” value is listed as 111.7%; the “Stability Re (%), Three Freeze–Thaw Cycles” value is 99.10%. Further, in data set [1] (setting [5]), the “Stability Re (%), 4 °C, 48 h” value turned out to be 86.36%; the “Stability Re (%), −80 °C, 10 Days” value is listed as 97.48%; the “Stability Re (%), Three Freeze–Thaw Cycles” value was 96.37%. In addition, in data set [1] (setting [6]), the “Stability Re (%), 4 °C, 48 h” value stood at 92.05%; the “Stability Re (%), −80 °C, 10 Days” value is listed as 99.40%; the “Stability Re (%), Three Freeze–Thaw Cycles” value is given as 98.71%. The compound further gave an AUC(0-inf) in data set [2] (setting [7]) of 1020 ± 300 ng·h/mL. Besides, the half-life in data set [2] (setting [8]) was 11.1 ± 5.22 h. Further, in data set [2] (setting [9]), the exposure AUC(0-t) came to 1020 ± 142 ng·h/mL; the Cmax (as a rule, the highest concentration seen after dosing) was 388 ± 32.1 ng/mL; the MRT last amounted to 6.82 ± 0.545 h; the Vd/F worked out at 152 ± 51.5 L/kg. In data set [2] (rat plasma, n = 6), the “AUC0–∞” value turned out to be 1041 ± 300.2 ng·h/mL, the CLz/F turned out to be 171 ± 42.3 mL/min/kg, the “MRT0–∞” value is recorded as 12.71 ± 5.092 h and the T1/2z is on record as 11.1 ± 5.22 h.
Turning to `COc1cc(O)c2c(c1)C(=O)c1cc(C)cc(OC3OC(CO)C(O)C(O)C3O)c1C2=O` [PG, physcion-8-O-β-D-glucoside], the “Stability in rat plasma (in words)” value in data set [1] is “stable”. Besides, in data set [1] (setting [4]), the “Stability Re (%), 4 °C, 48 h” value stood at 92.41%; the “Stability Re (%), −80 °C, 10 Days” value is 96.88%; the “Stability Re (%), Three Freeze–Thaw Cycles” value is 98.03%. In data set [1] (setting [5]), the “Stability Re (%), 4 °C, 48 h” value is 98.55%; the “Stability Re (%), −80 °C, 10 Days” value turned out to be 90.14%; the “Stability Re (%), Three Freeze–Thaw Cycles” value worked out at 88.21%. In addition, in data set [1] (setting [6]), the “Stability Re (%), 4 °C, 48 h” value was found to be 90.36%; the “Stability Re (%), −80 °C, 10 Days” value came out at 94.69%; the “Stability Re (%), Three Freeze–Thaw Cycles” value turned out to be 94.08%. Moreover, in data set [2] (setting [8]), the half-life is 12.3 ± 10.1 h. In data set [2] (setting [9]), the AUC(0-inf) is 205 ± 95.6 ng·h/mL, the AUC(0-t) stood at 146 ± 19.4 ng·h/mL, the Cmax came out at 20 ± 2.69 ng/mL and the MRT last was 8.41 ± 1.01 h. In data set [2] (setting [9]), the MRT inf was 17.6 ± 13.9 h and the Vd/F amounted to 242 ± 71.8 L/kg. Besides, the Tmax in data set [2] (setting [10]) was found to be 0.25 h. Further, in data set [2] (rat plasma, n = 6), the CLz/F is 290 ± 103 mL/min/kg and the T1/2z was found to be 12.3 ± 10.1 h.
Turning to `OCC1OC(Oc2c(O)cc(O)cc2C=Cc2ccc(O)cc2)C(O)C(O)C1O` [TSG, trans-2,3,5,4′-tetrahydroxystilbene-2-O-β-D-glucoside], the “Stability in rat plasma (in words)” value in data set [1] is “stable”. Moreover, in data set [1] (setting [4]), the “Stability Re (%), 4 °C, 48 h” value was found to be 97.86%; the “Stability Re (%), −80 °C, 10 Days” value was 92.72%; the “Stability Re (%), Three Freeze–Thaw Cycles” value was 99.01%. Besides, in data set [1] (setting [5]), the “Stability Re (%), 4 °C, 48 h” value amounted to 100.1%; the “Stability Re (%), −80 °C, 10 Days” value is 97.92%; the “Stability Re (%), Three Freeze–Thaw Cycles” value is listed as 91.38%. For the same compound, in data set [1] (setting [6]), the “Stability Re (%), 4 °C, 48 h” value is reported as 92.13%; the “Stability Re (%), −80 °C, 10 Days” value is recorded as 95.95%; the “Stability Re (%), Three Freeze–Thaw Cycles” value is 95.27%. The half-life in data set [2] (setting [8]) is 2.22 ± 1.34 h. Moreover, in data set [2] (setting [9]), the AUC(0-inf) came to 758 ± 58.6 ng·h/mL, the exposure AUC(0-t) was found to be 758 ± 58.9 ng·h/mL, the Cmax was 728 ± 104 ng/mL and the MRT last was found to be 1.22 ± 0.182 h. In addition, in data set [2] (setting [9]), the MRT inf stood at 1.23 ± 0.203 h and the Vd/F was 2000 ± 1270 L/kg. Also, in data set [2] (setting [10]), the Tmax was determined as 0.25 h. Also, the CLz/F in data set [2] (rat plasma, n = 6) turned out to be 10300 ± 769 mL/min/kg. The “Weighting coefficient (AUC0–∞ share)” value in data set [3] stood at 30.19%.
